Values of other authors, collected in US20230404964A1, “COMBINATION FOR REDUCING OXIDATIVE STRESS IN THE BODY AND MAINTAINING LIVER FUNCTIONS” (priority 2020, published 2023).
Several values for one entry are separate records, joined by “and”; a condition that tells them apart may be missing. Identical values can stand only once.

Tested on: HUVEC cells
Conditions: pretreatment with DHM 37.5-300 μmol, hydrogen peroxide

O=C1c2c(O)cc(O)cc2O[C@H](c2cc(O)c(O)c(O)c2)[C@H]1O [DHM, Dihydromyricetin]
decrease in apoptosis (depending on the dose): 14.83% and 11.1% and 9.12% | MDA concentration (in words): decrease in the MDA concentration | production of reactive oxygen species (in words): significant decrease in the production of reactive oxygen species
